Experiments:
[1] = target: T1, airway epithelial sodium currents (sodium channel) (UniProt A0A8I3MKE6+A0A8I3Q679+Q95165); assay: Sodium channel blocking activity: inhibition of short circuit current (ISC) in airway epithelial monolayers mounted in Ussing chambers; assay type: cell-based, human, dog, sheep or rodent; conditions: for Fold Amiloride** (PSA 4022 = 100): relative potency for PSA 4022 = 100 using EC50 from PSA 4022 in same run; for EC50: Selected Alaphatic Pyrazinoylguanidines (Formula II), mean ± spread, read-out: EC50
T1 sequence (A0A8I3MKE6 1-646): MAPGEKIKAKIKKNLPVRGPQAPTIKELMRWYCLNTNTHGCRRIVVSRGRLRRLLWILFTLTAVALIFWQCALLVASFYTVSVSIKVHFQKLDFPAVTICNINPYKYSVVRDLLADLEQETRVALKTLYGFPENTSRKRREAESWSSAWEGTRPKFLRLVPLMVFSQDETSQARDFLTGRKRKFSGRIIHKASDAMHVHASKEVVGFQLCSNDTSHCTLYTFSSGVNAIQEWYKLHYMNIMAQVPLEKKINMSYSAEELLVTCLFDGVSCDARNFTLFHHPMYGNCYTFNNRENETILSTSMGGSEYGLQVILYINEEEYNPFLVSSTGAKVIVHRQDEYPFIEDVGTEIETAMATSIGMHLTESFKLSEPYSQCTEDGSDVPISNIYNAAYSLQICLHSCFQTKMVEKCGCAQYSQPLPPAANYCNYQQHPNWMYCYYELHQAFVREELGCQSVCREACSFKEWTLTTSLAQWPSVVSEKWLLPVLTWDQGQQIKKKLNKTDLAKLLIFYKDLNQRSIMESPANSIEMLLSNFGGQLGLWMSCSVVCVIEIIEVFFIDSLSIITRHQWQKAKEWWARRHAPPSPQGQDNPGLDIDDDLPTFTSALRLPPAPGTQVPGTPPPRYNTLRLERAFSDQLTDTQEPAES
T1 sequence (A0A8I3Q679 1-649): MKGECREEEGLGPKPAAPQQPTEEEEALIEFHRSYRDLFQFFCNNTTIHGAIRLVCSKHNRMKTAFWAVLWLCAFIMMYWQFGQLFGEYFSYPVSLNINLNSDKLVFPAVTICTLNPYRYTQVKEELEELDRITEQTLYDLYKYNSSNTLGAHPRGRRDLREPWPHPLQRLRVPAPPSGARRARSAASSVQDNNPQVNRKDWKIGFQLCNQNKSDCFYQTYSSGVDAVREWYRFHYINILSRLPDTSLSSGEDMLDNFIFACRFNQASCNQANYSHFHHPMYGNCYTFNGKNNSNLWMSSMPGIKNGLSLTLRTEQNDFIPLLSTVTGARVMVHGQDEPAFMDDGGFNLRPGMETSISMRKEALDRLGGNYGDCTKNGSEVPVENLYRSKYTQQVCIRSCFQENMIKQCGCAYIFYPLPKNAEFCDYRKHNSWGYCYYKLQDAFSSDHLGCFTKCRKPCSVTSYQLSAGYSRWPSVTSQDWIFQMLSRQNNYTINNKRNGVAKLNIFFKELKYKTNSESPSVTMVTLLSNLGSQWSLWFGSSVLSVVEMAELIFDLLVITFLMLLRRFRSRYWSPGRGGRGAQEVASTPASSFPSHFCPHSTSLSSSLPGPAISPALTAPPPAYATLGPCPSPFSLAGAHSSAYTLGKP
T1 sequence (Q95165 1-641): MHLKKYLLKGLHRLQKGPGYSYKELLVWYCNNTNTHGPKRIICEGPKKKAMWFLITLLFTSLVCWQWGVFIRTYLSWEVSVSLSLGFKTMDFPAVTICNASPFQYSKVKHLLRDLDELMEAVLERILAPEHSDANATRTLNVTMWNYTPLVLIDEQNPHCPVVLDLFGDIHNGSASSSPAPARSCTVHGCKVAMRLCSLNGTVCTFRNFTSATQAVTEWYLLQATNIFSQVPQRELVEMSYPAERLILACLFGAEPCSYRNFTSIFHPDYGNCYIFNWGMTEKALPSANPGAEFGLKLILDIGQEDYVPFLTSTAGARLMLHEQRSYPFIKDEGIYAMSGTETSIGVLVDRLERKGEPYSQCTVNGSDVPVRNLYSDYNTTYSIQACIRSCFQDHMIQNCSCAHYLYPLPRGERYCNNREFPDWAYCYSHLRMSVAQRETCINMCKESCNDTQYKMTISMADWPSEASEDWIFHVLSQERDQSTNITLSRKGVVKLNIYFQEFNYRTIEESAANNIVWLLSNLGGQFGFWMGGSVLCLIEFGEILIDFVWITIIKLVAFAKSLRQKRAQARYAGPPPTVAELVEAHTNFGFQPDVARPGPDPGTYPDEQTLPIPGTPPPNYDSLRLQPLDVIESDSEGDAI
Method in brief: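 Human, dog, sheep or rodent airway epithelial cells were grown at air-liquid interface and mounted in Ussing chambers bathed in Krebs Bicarbonate Ringer. Drug was added lumenally in half-log cumulative doses from 1×10^−11 M to 3×10^−5 M, with inhibition of ISC recorded for IC50. Reversibility is percent return to baseline current after three drug-free washes.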

| Compound | melting point | Fold Amiloride** (PSA 4022 = 100) ([1]; Capped Pyrazinoylguanidines) | Fold Amiloride** (PSA 4022 = 100) ([1]; Alaphatic Pyrazinoylguanidines) | EC50 [1] [nM] |
| --- | --- | --- | --- | --- |
| CC(C)[C@H](NS(=O)(=O)c1ccc(CCCCNC(=N)NC(=O)c2nc(Cl)c(N)nc2N)cc1)C(N)=O.Cl [compound 19008, (2S)-(4-{4-[N′-(3,5-diamino-6-chloropyrazine-2-carbonyl)guanidino]-butyl}benzenesulfonylamino)-3-methylbutyramide] | 154 to 156 °C (dec.) | 54 ± 6 |  |  |
| CC(C)(C)OC(=O)NCCCCCCCCNC(=N)NC(=O)c1nc(Cl)c(N)nc1N [compound 19156, {8-[N′-(3,5-diamino-6-chloropyrazine-2-carbonyl)guanidino]octyl}carbamic acid tert-butyl ester] | 189 to 191 °C |  | 18 ± 2 | 46 ± 20 |
| CC(C)(C)OC(=O)NCCCOCCCNC(=N)NC(=O)c1nc(Cl)c(N)nc1N [compound 19333] | 62 to 65 °C (dec.) |  | 7 ± 2 | 81 ± 8 |
| CC(C)(C)OC(=O)NCCCCCCCCCNC(=N)NC(=O)c1nc(Cl)c(N)nc1N [compound 19484, {9-[N′-(3,5-diamino-6-chloropyrazine-2-carbonyl)guanidino]nonyl}-carbamic acid tert-butyl ester] | 187 to 189 °C |  | 12 | 66 |
| N=C(NCCCCc1ccc(OCCCc2ncc[nH]2)cc1)NC(=O)c1nc(Cl)c(N)nc1N [compound 23022, N-(3,5-diamino-6-chloropyrazine-2-carbonyl)-N′-(4-{4-[3-(1H-imidazol-2-yl)propoxy]phenyl}butyl)guanidine] | 123 to 126 °C (dec.) | 79 ± 15 |  |  |
| CC(C)(C)OC(=O)NCCCCCCCCCCCCNC(=N)NC(=O)c1nc(Cl)c(N)nc1N [compound 23776, {12-[N′-(3,5-diamino-6-chloropyrazine-2-carbonyl)guanidino]dodecyl}-carbamic acid tert-butyl ester] | 154 to 156 °C |  | 7 | 75 |
